The source of these data is US20240158392A1 (Janssen Biotech, Inc., priority 2021, published 2024).

The target of assay [1] is T1, SIK2 (Homo sapiens, UniProt Q9H0K1). The assay is described as follows: SIK2 Enzymatic Assay Version 1 (ADP Glo). The format is biochemical. The following applies: enzyme 0.6 nM, 160 μM ATP and 140 μM HDAC5tide (each 2× final concentration); 30 minutes pre-incubation, 4 hours; ADPGlo luminescence; read-out: SIK2 ADP Glo IC50 (μM) (Test Example 1). The essentials:
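Room-temperature ADP-Glo luminescence assay; SIK2 added at 0.6 nM (2× final) and preincubated with compound for 30 min. Reaction stopped with ADP-Glo Reagent for 40 min, then detection reagent for at least 30 min; no-peptide (ATP-only) wells served as negative control.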
(In general: In ADP-Glo the light output rises with the ADP produced.)

The target in assay [2] is T1, SIK2. The assay is described as follows: SIK2 Enzymatic Assay High Version 2 (High ATP). The format is biochemical. The essentials: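 At room temperature, enzyme (6 nM, 2× final) was preincubated with compound for 30 min, then 6 mM ATP and 400 μM HDAC5tide (both 2× final) were added for 2 h. ADP formed was measured by ADP-Glo Max (2 h reagent, 1 h detection) using luminescence.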

T1 sequence (Q9H0K1 whole entry, species assumed): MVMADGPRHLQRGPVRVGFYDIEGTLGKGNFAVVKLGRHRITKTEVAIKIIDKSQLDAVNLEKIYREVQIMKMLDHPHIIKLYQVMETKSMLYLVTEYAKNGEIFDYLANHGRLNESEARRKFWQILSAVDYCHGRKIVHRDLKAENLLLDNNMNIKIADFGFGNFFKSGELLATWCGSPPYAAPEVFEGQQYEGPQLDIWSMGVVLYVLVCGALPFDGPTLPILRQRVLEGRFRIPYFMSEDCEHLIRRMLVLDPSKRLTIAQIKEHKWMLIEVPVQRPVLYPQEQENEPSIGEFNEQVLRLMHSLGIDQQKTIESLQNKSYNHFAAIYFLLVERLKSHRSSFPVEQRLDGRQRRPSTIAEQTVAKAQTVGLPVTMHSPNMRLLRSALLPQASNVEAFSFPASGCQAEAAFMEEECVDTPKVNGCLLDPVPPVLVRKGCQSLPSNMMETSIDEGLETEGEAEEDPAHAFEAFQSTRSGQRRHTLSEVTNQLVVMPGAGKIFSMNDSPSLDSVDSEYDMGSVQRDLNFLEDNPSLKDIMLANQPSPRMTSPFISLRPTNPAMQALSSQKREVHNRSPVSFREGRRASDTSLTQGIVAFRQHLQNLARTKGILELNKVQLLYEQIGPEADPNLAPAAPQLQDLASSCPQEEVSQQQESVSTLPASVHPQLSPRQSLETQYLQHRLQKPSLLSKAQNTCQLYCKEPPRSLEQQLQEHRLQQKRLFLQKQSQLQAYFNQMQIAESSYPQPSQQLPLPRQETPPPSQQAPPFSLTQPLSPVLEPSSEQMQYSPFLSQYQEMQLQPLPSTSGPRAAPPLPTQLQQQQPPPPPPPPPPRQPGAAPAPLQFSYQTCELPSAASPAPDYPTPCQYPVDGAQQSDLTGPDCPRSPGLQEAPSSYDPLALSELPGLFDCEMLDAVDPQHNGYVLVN

Take `N#Cc1cc(-c2ccn3nc(NC(=O)C4CC4)cc3c2)c(OC[C@@H]2C[C@H]3CC[C@@H](C2)N3)cn1` [Example 67, N-[5-[5-[[(1S,5R)-8-azabicyclo[3.2.1]octan-3-yl]methoxy]-2-cyano-4-pyridyl]pyrazolo[1,5-a]pyridin-2-yl]cyclopropanecarboxamide]: the IC50 at SIK2 [1] was found to be 0.000631 µM; at SIK2 [2], 8.63 nM.

`N#Cc1cc(-c2ccn3nc(NC(=O)C4CC4)cc3c2)c(OC[C@H]2C[C@@H](O)C2)cn1` [Example 68, N-[5-[2-cyano-5-[(3-hydroxycyclobutyl)methoxy]-4-pyridyl]pyrazolo[1,5-a]pyridin-2-yl]cyclopropanecarboxamide]: the IC50 on SIK2 [1] was determined as 0.000666 µM; against SIK2 [2], 24 nM.

Turning to `N#Cc1cc(-c2ccn3nc(NC(=O)C4CC4)cc3c2)c(O[C@H]2C[C@@H](CO)C2)cn1` [Example 69, N-[5-[2-cyano-5-[3-(hydroxymethyl)cyclobutoxy]-4-pyridyl]pyrazolo[1,5-a]pyridin-2-yl]cyclopropanecarboxamide], the results for the IC50 at SIK2 [1] and at SIK2 [2] were 0.0028 µM and 38.3 nM, respectively.

Turning to `N#Cc1cc(-c2ccn3nc(NC(=O)C4CC4)cc3c2)c(N2CC(O)C2)cn1` [Example 70, N-[5-[2-cyano-5-(3-hydroxyazetidin-1-yl)-4-pyridyl]pyrazolo[1,5-a]pyridin-2-yl]cyclopropanecarboxamide], the IC50 on SIK2 [1] was determined as 0.0208 µM; against SIK2 [2] it was 409 nM.

Take `CC(C)(O)CNc1cnc(C#N)cc1-c1ccn2nc(NC(=O)C3CC3)cc2c1` [Example 81, N-[5-[2-cyano-5-[(2-hydroxy-2-methyl-propyl)amino]-4-pyridyl]pyrazolo[1,5-a]pyridin-2-yl]cyclopropanecarboxamide]: the values for the IC50 at SIK2 [1] and at SIK2 [2] were 0.0154 µM and 278 nM, respectively.

As to `N#Cc1cc(-c2ccn3nc(NC(=O)C4CC4)cc3c2)c(O[C@H]2C[C@H]3CC[C@@H](C2)N3)cn1` [Example 82, (3-endo)-N-(5-(5-(((1R,3r,5S)-8-azabicyclo[3.2.1]octan-3-yl)oxy)-2-cyanopyridin-4-yl)pyrazolo[1,5-a]pyridin-2-yl)cyclopropanecarboxamide], the IC50 on SIK2 [1] was determined as 0.000268 µM; on SIK2 [2] it was 5.07 nM.

`CN1[C@@H]2CC[C@H]1C[C@@H](COc1cnc(C#N)cc1-c1ccn3nc(NC(=O)C4CC4)cc3c1)C2` [Example 83, N-(5-(2-cyano-5-(((1R,3R,5S)-8-methyl-8-azabicyclo[3.2.1]octan-3-yl)methoxy)pyridin-4-yl)pyrazolo[1,5-a]pyridin-2-yl)cyclopropanecarboxamide]: the IC50 on SIK2 [1] worked out at 0.00299 µM; on SIK2 [2], 56.7 nM.

Consider `CN1CCC(Oc2cnc(C#N)cc2-c2ccn3nc(NC(=O)C4CC4)cc3c2)CC1` [Example 85, N-[5-[2-cyano-5-[(1-methyl-4-piperidyl)oxy]-4-pyridyl]pyrazolo[1,5-a]pyridin-2-yl]cyclopropanecarboxamide], for which the figures for the IC50 on SIK2 [1] and against SIK2 [2] were 0.00256 µM and 50.7 nM, respectively.

Turning to `N#Cc1cc(-c2ccn3nc(NC(=O)C4CC4)cc3c2)c(O[C@H]2CC[C@@H](O)CC2)cn1` [Example 86, N-(5-(2-cyano-5-(((1s,4s)-4-hydroxycyclohexyl)oxy)pyridin-4-yl)pyrazolo[1,5-a]pyridin-2-yl)cyclopropanecarboxamide], the IC50 was found to be 0.000204 µM on SIK2 [1] and 2.76 nM against SIK2 [2].

Consider `CN1CCC[C@@H](Oc2cnc(C#N)cc2-c2ccn3nc(NC(=O)C4CC4)cc3c2)C1` [Example 88, (R)—N-(5-(2-cyano-5-((1-methylpiperidin-3-yl)oxy)pyridin-4-yl)pyrazolo[1,5-a]pyridin-2-yl)cyclopropanecarboxamide], for which the IC50 was 0.00298 µM on SIK2 [1] and 51.1 nM against SIK2 [2].

Consider `C[C@]1(O)CC[C@@H](Oc2cnc(C#N)cc2-c2ccn3nc(NC(=O)C4CC4)cc3c2)CC1` [Example 89], for which the IC50 at SIK2 [1] is 0.000299 µM; against SIK2 [2], 3.04 nM.

`N#Cc1cc(-c2ccn3nc(NC(=O)C4CC4)cc3c2)c(OC2C[C@H]3COC[C@@H](C2)N3)cn1` (stereo partly drawn) [Example 92, (3-endo)-N-[5-[2-cyano-5-[[(1R,5S)-3-oxa-9-azabicyclo[3.3.1]nonan-7-yl]oxy]-4-pyridyl]pyrazolo[1,5-a]pyridin-2-yl]cyclopropanecarboxamide]: the half-maximal inhibitory concentration (IC50) on SIK2 [1] is 0.00013 µM; on SIK2 [2], below 0.838 nM.

Consider `CC1(C)CC(Oc2cnc(C#N)cc2-c2ccn3nc(NC(=O)C4CC4)cc3c2)CC(C)(C)N1` [Example 93, N-[5-[2-cyano-5-[(2,2,6,6-tetramethyl-4-piperidyl)oxy]-4-pyridyl]pyrazolo[1,5-a]pyridin-2-yl]cyclopropanecarboxamide], for which the results for the IC50 on SIK2 [1] and on SIK2 [2] were 0.0359 µM and 1250 nM, respectively.

Take `C[C@@H](O)COc1cnc(C#N)cc1-c1ccn2nc(NC(=O)C3CC3)cc2c1` [Example 94, N-[5-[2-cyano-5-[(2R)-2-hydroxypropoxy]-4-pyridyl]pyrazolo[1,5-a]pyridin-2-yl]cyclopropanecarboxamide]: the values for the IC50 on SIK2 [1] and on SIK2 [2] were 0.00847 µM and 167 nM, respectively.

Consider `N#Cc1cc(-c2ccn3nc(NC(=O)C4CC4)cc3c2)c(O[C@@H]2CNC[C@H](C(F)(F)F)C2)cn1` [Example 95, N-[5-[2-cyano-5-[[(3S,5R)-5-(trifluoromethyl)-3-piperidyl]oxy]-4-pyridyl]pyrazolo[1,5-a]pyridin-2-yl]cyclopropanecarboxamide], for which the IC50 at SIK2 [1] is 0.000435 µM; against SIK2 [2], 2.58 nM.

`N#Cc1cc(-c2ccn3nc(NC(=O)C4CC4)cc3c2)c(OC[C@@H](O)C(F)(F)F)cn1` [Example 96, N-[5-[2-cyano-5-[(2R)-3,3,3-trifluoro-2-hydroxy-propoxy]-4-pyridyl]pyrazolo[1,5-a]pyridin-2-yl]cyclopropanecarboxamide]: the values for the IC50 on SIK2 [1] and against SIK2 [2] were 0.000912 µM and 16 nM, respectively.

Take `N#Cc1cc(-c2ccn3nc(NC(=O)C4CC4)cc3c2)c(OC[C@H](O)C(F)(F)F)cn1` [Example 97, N-[5-[2-cyano-5-[(2S)-3,3,3-trifluoro-2-hydroxy-propoxy]-4-pyridyl]pyrazolo[1,5-a]pyridin-2-yl]cyclopropanecarboxamide]: the figures for the IC50 at SIK2 [1] and against SIK2 [2] were 0.00609 µM and 114 nM, respectively.

Regarding `CN[C@H]1C[C@@H](COc2cnc(C#N)cc2-c2ccn3nc(NC(=O)C4CC4)cc3c2)C1` [Example 98, N-(5-(2-cyano-5-(((1s,3s)-3-(methylamino)cyclobutyl)methoxy)pyridin-4-yl)pyrazolo[1,5-a]pyridin-2-yl)cyclopropanecarboxamide], the IC50 on SIK2 [1] was found to be 0.000779 µM; against SIK2 [2], 13.8 nM.

Consider `N#Cc1cc(-c2ccn3nc(NC(=O)C4CC4)cc3c2)c(OCC(O)(C(F)(F)F)C(F)(F)F)cn1` [Example 99, N-[5-[2-cyano-5-[3,3,3-trifluoro-2-hydroxy-2-(trifluoromethyl)propoxy]-4-pyridyl]pyrazolo[1,5-a]pyridin-2-yl]cyclopropanecarboxamide], for which the IC50 at SIK2 [1] was 0.00295 µM; against SIK2 [2] it was 37.6 nM.

Consider `CN1CC[C@@H](COc2ccc(C#N)cc2-c2ccn3nc(NC(=O)C4CC4)cc3c2)C1` [Example 100, N-[5-[5-cyano-2-[[(3R)-1-methylpyrrolidin-3-yl]methoxy]phenyl]pyrazolo[1,5-a]pyridin-2-yl]cyclopropanecarboxamide], for which the results for the IC50 at SIK2 [1] and at SIK2 [2] were 0.00573 µM and 105 nM, respectively.

Consider `N#Cc1ccc(OC[C@H]2CNCCO2)c(-c2ccn3nc(NC(=O)C4CC4)cc3c2)c1` [Example 101, N-[5-[5-cyano-2-[[(2R)-morpholin-2-yl]methoxy]phenyl]pyrazolo[1,5-a]pyridin-2-yl]cyclopropanecarboxamide], for which the results for the IC50 at SIK2 [1] and against SIK2 [2] were 0.00263 µM and 21.9 nM, respectively.

`CC1(C)CNC[C@H](COc2ccc(C#N)cc2-c2ccn3nc(NC(=O)C4CC4)cc3c2)O1` [Example 102, N-[5-[5-cyano-2-[[(2R)-6,6-dimethylmorpholin-2-yl]methoxy]phenyl]pyrazolo[1,5-a]pyridin-2-yl]cyclopropanecarboxamide]: the values for the IC50 on SIK2 [1] and against SIK2 [2] were 0.000413 µM and below 0.838 nM, respectively.

With `N#Cc1ccc(OC[C@@H]2CNCCO2)c(-c2ccn3nc(NC(=O)C4CC4)cc3c2)c1` [Example 103, N-[5-[5-cyano-2-[[(2S)-morpholin-2-yl]methoxy]phenyl]pyrazolo[1,5-a]pyridin-2-yl]cyclopropanecarboxamide], the IC50 turned out to be 0.00362 µM on SIK2 [1] and 34.5 nM at SIK2 [2].

For the compound `CC1(C)CNC[C@@H](COc2ccc(C#N)cc2-c2ccn3nc(NC(=O)C4CC4)cc3c2)O1` [Example 104, N-[5-[5-cyano-2-[[(2S)-6,6-dimethylmorpholin-2-yl]methoxy]phenyl]pyrazolo[1,5-a]pyridin-2-yl]cyclopropanecarboxamide], the IC50 on SIK2 [1] is 0.00588 µM; against SIK2 [2] it was 31 nM.

With `CN1CC[C@@H](COc2cnc(C#N)cc2-c2ccn3nc(Nc4ccncc4)cc3c2)C1` [Example 105, 5-[[(3R)-1-methylpyrrolidin-3-yl]methoxy]-4-[2-(4-pyridylamino)pyrazolo[1,5-a]pyridin-5-yl]pyridine-2-carbonitrile], the IC50 on SIK2 [1] is 0.00951 µM; against SIK2 [2], 203 nM.

Consider `CN1CC[C@@H](COc2cnc(C#N)cc2-c2ccn3nc(Nc4ccccc4)cc3c2)C1` [Example 106, 4-(2-anilinopyrazolo[1,5-a]pyridin-5-yl)-5-[[(3R)-1-methylpyrrolidin-3-yl]methoxy]pyridine-2-carbonitrile], for which the IC50 at SIK2 [1] was determined as 0.00338 µM; against SIK2 [2], 48.5 nM.

Turning to `CN1CC[C@@H](COc2cnc(C#N)cc2-c2ccn3nc(Nc4ccccn4)cc3c2)C1` [Example 107, 5-[[(3R)-1-methylpyrrolidin-3-yl]methoxy]-4-[2-(2-pyridylamino)pyrazolo[1,5-a]pyridin-5-yl]pyridine-2-carbonitrile], the IC50 at SIK2 [1] is 0.0022 µM; on SIK2 [2], 40.1 nM.

Usually IC50 stands for the point on the concentration scale where inhibition reaches its midpoint.
